These results are taken from patent US20070135375A1, “Sulfamoyl sulfonate prodrugs” (priority 2005, published 2007).

Like-named read-outs stand apart in the source and are kept apart here.

Data set [1] concerns the target human carbonic anhydrase I (Homo sapiens, UniProt P00915). The data set can be described thus: Carbonic anhydrase inhibition, photometric, nitrophenyl acetate conversion (CA I). In kind it is biochemical. From the text:
(§1) Photometric determination of the inhibition of human carbonic anhydrase I or II with sulfonamides or sulfamates on microtiter plates with the aid of enzymatic conversion of nitrophenyl acetate with a color change from colorless to yellow.

Data set [2] can be described thus: Stability in simulated gastric juice (NaCl solution with pepsin, pH~1.2), HPLC. In kind it is physicochemical. The note with it: 30 min, 37° C., column head pH = 1, cells note pH = 1.2 (gastric juice). How it is done:
The quantification took place through HPLC (HPLC column: Xterra MS C18 2.5 μm 4.6×30 mm). Based on the test substances to be measured, the following gradient system was used for the HPLC: • Acidic gradient: A: water/0.01% trifluoroacetic acid, B: acetonitrile/0.01% trifluoroacetic acid—0 min 5% B, 0-3 min 65% B, 3-5 min 65% B, 5-6 min 5% B • Alkaline gradient: A: water/0.025% ammonia, B: acetonitrile/0.025% ammonia—0 min 20% B, 0-3 min 80% B, 3-5 min 80% B, 5-6 min 20% B. The quantification took place after 1 and 2 hours and after 24 hours. Stability in Simulated Gastric Juice:
Solutions of the compounds according to the invention were incubated at 37° C. in simulated gastric juice (aqueous NaCl solution with pepsin, pH˜1.2).
The quantification took place through HPLC (HPLC-column: Xterra MS C18 2.5 μm 4.6×30 mm) using the gradient system: […]
A: water/0.01% trifluoroacetic acid, B: acetonitrile/0.01% trifluoroacetic acid—0 min 5% B, 0-3 min 65% B, 3-5 min 65% B, 5-6 min 5% B.
The quantification took place after 0.5, 1, 1.5 and 2 hours.

A short description of data set [3]: Hydrolysis in aqueous buffer of various pH values at 37° C., HPLC. In kind it is physicochemical. How it is done: The compounds according to the invention were measured as a DMSO solution in an aqueous buffer of various pH values at 37° C.
The quantification took place through HPLC (HPLC column: Xterra MS C18 2.5 μm 4.6×30 mm). Based on the test substances to be measured, the following gradient system was used for the HPLC: • Acidic gradient: A: water/0.01% trifluoroacetic acid, B: acetonitrile/0.01% trifluoroacetic acid—0 min 5% B, 0-3 min 65% B, 3-5 min 65% B, 5-6 min 5% B • Alkaline gradient: A: water/0.025% ammonia, B: acetonitrile/0.025% ammonia—0 min 20% B, 0-3 min 80% B, 3-5 min 80% B, 5-6 min 20% B. The quantification took place after 1 and 2 hours and after 24 hours.

Data set [4] can be described thus: Solubility in water (kinetic nephelometry / thermodynamic HPLC). Format: physicochemical. The note with it: for solubility: 25 °C, aqueous buffer. How it is done:
The compounds according to the invention were measured as 10 mmol DMSO solution in a 0.01 M phosphate buffer solution at pH 7.4 and 25° C. with nephelometry and turbidity.
While in a turbid state, the solution to be tested was added drop by drop to the buffer solution until a precipitate settled.
The precipitate was detected in a dilution series (compounds in a phosphate buffer solution according to the invention) by nephelometry.
b.) Thermodynamic Measurement:
The compounds in solid form according to the invention were added to an excess of an aqueous buffer system of various pH values. It was stirred 24 hours at 25° C. After centrifuging, the solution was examined with HPLC (HPLC: column: Xterra MS C18 2.5 μm, 30×4.6 mm).

For data set [5], the target named is human carbonic anhydrase II (Homo sapiens, UniProt P00918). The data set can be described thus: Carbonic anhydrase inhibition, photometric, nitrophenyl acetate conversion (CA II). In kind it is biochemical.
From the text: as §1

The mark [6] stands for this setting: human carbonic anhydrase I, read-out: CA I IC50.
[7] abbreviates: human carbonic anhydrase II, read-out: CA II IC50.

human carbonic anhydrase I, sequence (P00915 whole entry): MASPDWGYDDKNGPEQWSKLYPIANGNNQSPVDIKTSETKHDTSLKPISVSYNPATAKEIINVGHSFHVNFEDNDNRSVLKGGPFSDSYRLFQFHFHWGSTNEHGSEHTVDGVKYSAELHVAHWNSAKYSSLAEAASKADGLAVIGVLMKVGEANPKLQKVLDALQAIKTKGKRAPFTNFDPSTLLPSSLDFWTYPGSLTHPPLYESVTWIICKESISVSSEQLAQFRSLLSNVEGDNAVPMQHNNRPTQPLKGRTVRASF

Regarding `C[C@]12CC[C@@H]3c4ccc(O)cc4CC[C@H]3[C@@H]1CC[C@@H]2OS(=O)(=O)c1cccc(S(N)(=O)=O)c1` [3-Hydroxyestra-1,3,5(10)-trien-17β-yl 3′-sulfamoylphenyl Sulfonate], the IC50 in data set [1] (setting [6]) was 1700 nM; in data set [5] (setting [7]), 81 nM. Further, the Decomposition in % in data set [2] was 4%; in data set [3] (pH = 1, 37° C., 1 h) it was 7%; in data set [3] (pH = 1, 37° C., 2 h), 14%; in data set [3] (pH = 1, 37° C., 24 h), 80%; in data set [3] (pH = 7.4, 37° C., 1 h), 6%; in data set [3] (pH = 7.4, 37° C., 2 h) it was 13%. Moreover, the Decomposition in % in data set [3] (pH = 7.4, 37° C., 24 h) is 84%. This molecule gave a solubility in data set [4] of 3 µg/mL.

Consider `C[C@]12CC[C@H]3[C@@H](CCC4=CC(=O)CC[C@@]43C)[C@@H]1CC[C@@H]2OS(=O)(=O)c1cccc(S(N)(=O)=O)c1` [3-Oxo-androst-4-en-17β-yl 3′-sulfamoylphenyl Sulfonate], for which the IC50 in data set [1] is 2300 nM; in data set [5] it was 120 nM. Besides, the Decomposition in % is reported as 3% in data set [2]; 6% in data set [3] (pH = 1, 37° C., 1 h); 11% in data set [3] (pH = 1, 37° C., 2 h); 78% in data set [3] (pH = 1, 37° C., 24 h); 6% in data set [3] (pH = 7.4, 37° C., 1 h); 12% in data set [3] (pH = 7.4, 37° C., 2 h). The Decomposition in % in data set [3] (pH = 7.4, 37° C., 24 h) was 75%. Moreover, the solubility in data set [4] was determined as 5 µg/mL.

Take `C[C@@H]1CC2=CC(=O)CC[C@]2(C)[C@H]2CC[C@]3(C)[C@@H](OS(=O)(=O)c4cccc(S(N)(=O)=O)c4)CC[C@H]3[C@H]12` [3-oxo-7α-methylandrost-4-en-17β-yl 3′-sulfamoylphenyl sulfonate]: the IC50 is 2300 nM in data set [1] (setting [6]) and 120 nM in data set [5] (setting [7]). The Decomposition in % worked out at 6% in data set [3] (pH = 1, 37° C., 1 h); 11% in data set [3] (pH = 1, 37° C., 2 h); 71% in data set [3] (pH = 1, 37° C., 24 h); 6% in data set [3] (pH = 7.4, 37° C., 1 h); 11% in data set [3] (pH = 7.4, 37° C., 2 h); 70% in data set [3] (pH = 7.4, 37° C., 24 h). Also, the “Solubility in Water” value in data set [4] is “About 6 mg/l”.

As for `C[C@]12CC[C@@H]3c4ccc(OS(N)(=O)=O)cc4CC[C@H]3[C@@H]1CC[C@@H]2O` [Estradiol-3-sulfamat, Estradiol-3-sulfamate, reference compound], the IC50 worked out at 157 ± 10.6 nM in data set [1] (setting [6]) and 34 nM in data set [5] (setting [7]).

Consider `CCC(=O)O[C@H]1CC[C@H]2[C@@H]3CCC4=CC(=O)CC[C@]4(C)[C@H]3CC[C@]12C` [Testosterone Propionate, 3-Oxoandrost-4-en-17β-yl n-propionate, reference compound], for which the Decomposition in % is reported as 0% in data set [2]; 0% in data set [3] (pH = 1, 37° C., 1 h); 0% in data set [3] (pH = 1, 37° C., 2 h); 0% in data set [3] (pH = 1, 37° C., 24 h); 0% in data set [3] (pH = 7.4, 37° C., 1 h); 0% in data set [3] (pH = 7.4, 37° C., 2 h). This molecule had a Decomposition in % in data set [3] (pH = 7.4, 37° C., 24 h) of 0%. The “Solubility in Water (in words)” value in data set [4] was “insoluble”.

Consider “Zidovudine-sulfamoylphenyl Sulfonate [Zidovudinsulfonat]”, for which the figures for the IC50 in data set [1] (setting [6]) and in data set [5] (setting [7]) were 2900 nM and 1100 nM, respectively.
